Experimental data published in patent US20100160454A1, “ANTIMICROBIAL AGENTS, COMPOSITIONS AND PRODUCTS CONTAINING THE SAME, AND METHODS OF USING THE COMPOSITIONS AND PRODUCTS” (Eastman Chemical Company, priority 2008, published 2010).

Experiments:
Assay in all cases: Microbiological challenge testing in BPW broth, graded subculture counts
Assay type in all cases: cell-based
[1] = test system: Aspergillus niger Wild type; conditions: A. niger
Procedure: (§1) The microorganisms in the table below were used in challenge tests. They were either ATCC (American Type Culture Collection) or “wild type” as indicated. Wild type organisms were problematic organisms previously isolated from chemical products.
(§2) All of the microorganisms were grown in Tryptose Soy Broth (TSB), DIFCO™ available from Becton, Dickinson and Company, containing 1% dextrose. Candida albicans and Aspergillus niger, were incubated at 22° C.+/−2° C. for at least 96 hours. All bacteria were incubated at 35° C.+/−2° C. in a humidified incubator for at least 96 hours.
(§3) Candida albicans and Aspergillus niger were also grown on Sabouraud Dextrose Agar (SABD) at 22° C. for 7 to 14 days or until full sporulation was achieved.
(§4) The following procedure was followed to determine the amount of each challenge material (inoculum broth) needed to produce a 10^8 CFU/mL challenge, which is equivalent to a final test-sample microbial concentration of 10^5 to 10^6 CFU/mL (CFU=colony forming units).
(§5) Using a sterile pipette, 1 mL of the growth from each TSB culture was transferred into tubes of 9 mL buffered water (pH 7.2 phosphate buffer) and mixed thoroughly. This was repeated to make serial 1:10 dilutions. Then, 0.1 mL of each sample and dilution was inoculated onto agar plates to produce the equivalent of a further 1:10 dilution. (C. albicans and A. niger were inoculated onto SABD and bacteria were inoculated onto Plate Count Agar (PCA), DIFCO™ available from Becton, Dickinson and Company.) (The normal volume plated for most samples was 0.1 mL. Some samples that could be very low in micro-organisms (high dilutions) were plated using 0.5 mL of inoculum, in order to produce reproducible counts.) The samples were distributed on the plates using the spread-plate technique. The spread-plate technique is carried out by spreading the sample over the entire plate surface using a sterile spreading rod while rotating the plate with a rotary auto-plater. After the inoculum was absorbed completely by the agar, each plate was inverted and incubated (fungi at 22° C.+/−2° C. and bacteria at 35° C.+/−2° C.).
(§6) After incubation for at least 48 hours, colonies that had developed on the agar plates were counted (CFU) and recorded with the corresponding dilution. If counting had to be delayed temporarily, plates were refrigerated, preferably no more than 24 hours, until they could be counted. The number of CFU/mL was determined by multiplying the plate count by the dilution factor of the plate counted.
(§7) Turbidity in Nepholemetric Turbidity Units (NTU) was measured for each serial dilution using the HF-Micro 100 Model Turbidimeter. For each microorganism, the plate counts were compared to the turbidity readings.
Aspergillus niger cultures were harvested and spores dislodged from the SABD on which they were grown by rubbing the growth gently with a sterile inoculating loop. The spores were then mixed into the broth culture that had been incubated with a sterile magnetic stir bar to reduce pellicle formation. The spore-culture mixture was filtered repeatedly through sterile, nonabsorbent cotton and harvested repeatedly, adjusting vegetative cells and spores to a level of 1.0×10^8. A hemocytometer was used to verify the final challenge concentration.
(§8) Control substrates (“broth alone”) were prepared for each microorganism separately in triplicate by adding 13.5 mL of Buffered Peptone Water broth (BPW) containing 1% dextrose to each 20-mL glass tube, then adding 1.5 mL challenge material to produce a final concentration at time zero of 10^5 to 10^6 CFU/mL and a total volume of 15 mL.

[2] = test system: Pseudomonas aeruginosa Wild type; conditions: P. aeruginosa
Procedure: as §1, §2, §4, §5, §6, §7, §8
(§9) Test sample substrates were prepared containing each test material listed below at the concentrations shown for challenge testing with each microorganism separately. Sample substrates were prepared in triplicate, except the substrates containing butoxyethanol which were prepared in duplicate. Substrates were prepared by adding BPW containing 1% dextrose to each 20-mL glass tube, then adding the test material in the amount appropriate to achieve the desired weight/volume percent and to achieve a total volume of BPW plus dextrose plus test material of 13.5 mL. Then 1.5 mL challenge material was added to produce a final concentration at time zero of 10^5 to 10^6 CFU/mL and a total test sample substrate volume of 15 mL.

[3] = test system: Bacillus subtilis Wild type
Procedure: as §1, §2, §4, §5, §6, §7, §8, §9

[4] = test system: Streptococcus mutans ATCC 35668
Procedure: as §1, §2, §4, §5, §6, §7, §8, §9

[5] = test system: Candida albicans Wild type; conditions: C. albicans
Procedure: as §1, §2, §3, §4, §5, §6, §7
On the day of challenge, the Candida albicans inoculum broth was poured through nonabsorbent sterile gauze and centrifuged. The […] was then diluted with buffered water (pH 7.2 phosphate buffer) until the desired turbidity was reached. Using a hemocytometer, a determination was made whether the challenge contained the desired concentration. Dilutions were made through 1.0×10^8 and three SABD spread plates were inoculated with 0.1 mL of each dilution. The plates were incubated for at least 48 hours and challenge counts were confirmed.
as §8

OCC1CCCCC1CO (stereo not drawn) [1,2-CHDM, 1,2-cyclohexanedimethanol]
Grade ([1]; 0.5% (wt/vol), 3 day): 4.7
Grade ([1]; 0.5% (wt/vol), 13 day): 4
Grade ([1]; 0.5% (wt/vol), 30 day): 4
Grade ([1]; 1.25% (wt/vol), 3 day): 3.3
Grade ([1]; 1.25% (wt/vol), 13 day): 3.3
Grade ([1]; 1.25% (wt/vol), 30 day): 4
Grade ([1]; 2.5% (wt/vol), 3 day): 2 (Countable (10 to 100 colonies))
Grade ([1]; 2.5% (wt/vol), 13 day): 0
Grade ([1]; 2.5% (wt/vol), 30 day): 0
Grade ([1]; 5.0% (wt/vol), 3 day): 0
Grade ([1]; 5.0% (wt/vol), 13 day): 0
Grade ([1]; 5.0% (wt/vol), 30 day): 0
Grade ([2]; 0.5% (wt/vol), 3 day): 4 (1000 to 10,000 colonies countable (thus 10,000 CFU/mL to 100,000 CFU/mL))
Grade ([2]; 0.5% (wt/vol), 13 day): 4 (1000 to 10,000 colonies countable (thus 10,000 CFU/mL to 100,000 CFU/mL))
Grade ([2]; 0.5% (wt/vol), 30 day): 4 (1000 to 10,000 colonies countable (thus 10,000 CFU/mL to 100,000 CFU/mL))
Grade ([2]; 1.25% (wt/vol), 3 day): 2.7
Grade ([2]; 1.25% (wt/vol), 13 day): 1 (0 to 51 colonies counted (thus 10 to 510 CFU/mL based on 0.1-mL sample))
Grade ([2]; 1.25% (wt/vol), 30 day): 3 (100 to 1000 colonies (thus 1000 to 10,000 CFU/mL))
Grade ([2]; 2.5% (wt/vol), 3 day): 1 (0 to 51 colonies counted (thus 10 to 510 CFU/mL based on 0.1-mL sample))
Grade ([2]; 2.5% (wt/vol), 13 day): 0
Grade ([2]; 2.5% (wt/vol), 30 day): 0
Grade ([2]; 5.0% (wt/vol), 3 day): 0
Grade ([2]; 5.0% (wt/vol), 13 day): 0
Grade ([2]; 5.0% (wt/vol), 30 day): 0
B. subtillis growth grade, 3 day ([3]; 0.5% weight/volume): 4 (1000 to 10,000 colonies countable (thus 10,000 CFU/mL to 100,000 CFU/mL))
B. subtillis growth grade, 14 day ([3]; 0.5% weight/volume): 3 (100 to 1000 colonies (thus 1000 to 10,000 CFU/mL))
B. subtillis growth grade, 30 day ([3]; 0.5% weight/volume): 4 (1000 to 10,000 colonies countable (thus 10,000 CFU/mL to 100,000 CFU/mL))
B. subtillis growth grade, 3 day ([3]; 1.25% weight/volume): 2 (52 to 100 colonies counted (thus 520 to 1000 CFU/mL))
B. subtillis growth grade, 14 day ([3]; 1.25% weight/volume): 1 (0 to 51 colonies counted (thus 10 to 510 CFU/mL based on 0.1-mL sample))
B. subtillis growth grade, 30 day ([3]; 1.25% weight/volume): 1 (0 to 51 colonies counted (thus 10 to 510 CFU/mL based on 0.1-mL sample))
B. subtillis growth grade, 3 day ([3]; 2.5% weight/volume): 0
B. subtillis growth grade, 14 day ([3]; 2.5% weight/volume): 0
B. subtillis growth grade, 30 day ([3]; 2.5% weight/volume): 0
B. subtillis growth grade, 3 day ([3]; 5.0% weight/volume): 0
B. subtillis growth grade, 14 day ([3]; 5.0% weight/volume): 0
B. subtillis growth grade, 30 day ([3]; 5.0% weight/volume): 0
S. mutans growth grade, 3 day ([4]; 0.5% weight/volume): 4 (1000 to 10,000 colonies countable (thus 10,000 CFU/mL to 100,000 CFU/mL))
S. mutans growth grade, 13 day ([4]; 0.5% weight/volume): 4 (1000 to 10,000 colonies countable (thus 10,000 CFU/mL to 100,000 CFU/mL))
S. mutans growth grade, 30 day ([4]; 0.5% weight/volume): 4 (1000 to 10,000 colonies countable (thus 10,000 CFU/mL to 100,000 CFU/mL))
S. mutans growth grade, 3 day ([4]; 1.25% weight/volume): 2 (52 to 100 colonies counted (thus 520 to 1000 CFU/mL))
S. mutans growth grade, 13 day ([4]; 1.25% weight/volume): 0
S. mutans growth grade, 30 day ([4]; 1.25% weight/volume): 0
S. mutans growth grade, 3 day ([4]; 2.5% weight/volume): 1 (0 to 51 colonies counted (thus 10 to 510 CFU/mL based on 0.1-mL sample))
S. mutans growth grade, 13 day ([4]; 2.5% weight/volume): 0
S. mutans growth grade, 30 day ([4]; 2.5% weight/volume): 0
S. mutans growth grade, 3 day ([4]; 5.0% weight/volume): 0
S. mutans growth grade, 13 day ([4]; 5.0% weight/volume): 0
S. mutans growth grade, 30 day ([4]; 5.0% weight/volume): 0
Grade ([5]; 0.5% (wt/vol), 3 day): 4 (1000 to 10,000 colonies countable (thus 10,000 CFU/mL to 100,000 CFU/mL))
Grade ([5]; 0.5% (wt/vol), 14 day): 4 (1000 to 10,000 colonies countable (thus 10,000 CFU/mL to 100,000 CFU/mL))
Grade ([5]; 0.5% (wt/vol), 30 day): 4 (1000 to 10,000 colonies countable (thus 10,000 CFU/mL to 100,000 CFU/mL))
Grade ([5]; 1.25% (wt/vol), 3 day): 4 (1000 to 10,000 colonies countable (thus 10,000 CFU/mL to 100,000 CFU/mL))
Grade ([5]; 1.25% (wt/vol), 14 day): 4 (1000 to 10,000 colonies countable (thus 10,000 CFU/mL to 100,000 CFU/mL))
Grade ([5]; 1.25% (wt/vol), 30 day): 4 (1000 to 10,000 colonies countable (thus 10,000 CFU/mL to 100,000 CFU/mL))
Grade ([5]; 2.5% (wt/vol), 3 day): 0
Grade ([5]; 2.5% (wt/vol), 14 day): 0
Grade ([5]; 2.5% (wt/vol), 30 day): 0
Grade ([5]; 5.0% (wt/vol), 3 day): 0
Grade ([5]; 5.0% (wt/vol), 14 day): 0
Grade ([5]; 5.0% (wt/vol), 30 day): 0
